Data on 42 molecules can be found in US8754113B2, “Oxadiazole derivative having endothelial lipase inhibitory activity” (Shionogi & Co., Ltd., priority 2009, dated 2014).

Sequence of human endothelial lipase (EL) (Q9Y5X9 21-500): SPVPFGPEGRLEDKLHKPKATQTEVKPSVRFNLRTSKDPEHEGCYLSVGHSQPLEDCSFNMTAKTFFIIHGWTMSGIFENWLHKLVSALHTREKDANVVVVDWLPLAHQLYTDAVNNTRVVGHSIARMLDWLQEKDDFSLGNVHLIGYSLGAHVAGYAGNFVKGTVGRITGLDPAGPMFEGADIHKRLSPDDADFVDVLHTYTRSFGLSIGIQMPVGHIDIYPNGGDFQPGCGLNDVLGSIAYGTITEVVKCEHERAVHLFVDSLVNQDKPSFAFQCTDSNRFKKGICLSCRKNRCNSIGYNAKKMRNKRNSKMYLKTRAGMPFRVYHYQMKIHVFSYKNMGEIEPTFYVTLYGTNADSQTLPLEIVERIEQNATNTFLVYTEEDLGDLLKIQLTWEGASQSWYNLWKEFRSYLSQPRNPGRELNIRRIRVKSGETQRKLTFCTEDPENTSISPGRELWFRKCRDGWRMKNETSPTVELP

The test concerns the target human endothelial lipase (EL) (Homo sapiens (Human), UniProt Q9Y5X9). As to the kind of experiment: Human endothelial lipase (EL) inhibitory activity using human HDL (NEFA release). To be noted: human HDL 2 mg/ml substrate, 4-hour reaction at 37° C., NEFA readout; read-out: IC50 (50% inhibitory concentration), EL inhibitory activity. The test is classed as biochemical. How it is done:
Evaluation Method of Human Endothelial Lipase (EL) Inhibitory Activity Using Human High-Density Lipoprotein (HDL)
After the present compound dissolved in DMSO was added to become 0.5% DMSO to the reaction buffer consisting of 20 mM tris hydrochloric acid (pH7.4), bovine serum albumin (0.5%), calcium chloride (4 mM), sodium chloride (150 mM) and human HDL (2 mg/ml), the EL enzyme was added (total volume was 20 μl).
After 4-hour reaction at 37° C., non-esterified fatty acid (NEFA) generated from HDL by EL was measured with a commercially available assay kit and the amount of NEFA was used as an index of enzyme activity.
As to `N#CC1(NC(=O)Cc2nnc(Cc3nc4ccc(-c5ncc(F)cn5)cc4s3)o2)CC1` [Compound I-3-112], the IC50 worked out at 44 nM.

Take `O=C(Cc1nnc(Cc2nc3ccc(-c4ccccc4)cc3s2)o1)Nc1ccccc1` [Compound I-1-83]: the IC50 came to 5 nM.

For the molecule `N#CC1(NC(=O)Cc2nnc(Cc3nc4ccc(-c5ccc(Cl)cn5)cc4s3)o2)CC1` [Compound I-3-146], the IC50 stood at 27 nM.

As to `O=C(O)CCc1nnc(Cc2nc3ccc(-c4ccccc4)cc3s2)o1` [Compound I-1-9], the IC50 was found to be 260 nM.

As for `N#CC1(NC(=O)Cc2nnc(Cc3nc4ccc(Cc5ccc(F)cc5)cc4s3)o2)CC1` [Compound I-3-41], the IC50 is 14 nM.

`O=C(O)Cc1nnc(Cc2nc3ccc(-c4ccccc4)cc3s2)o1` [Compound I-1-2]: the IC50 is 120 nM.

In the case of `N#CC1(NC(=O)Cc2nnc(Cc3nc4ccc(-c5ccccc5)c(Cl)c4s3)o2)CC1` [Compound A-17], the IC50 turned out to be 41 nM.

Turning to `Cn1cc(-c2ccc3nc(Cc4nnc(CC(=O)NC5(C#N)CC5)o4)sc3c2Cl)cn1` [Compound A-21], the IC50 was found to be 65 nM.

Turning to `N#CC1(NC(=O)Cc2nnc(Cc3nc4ccc(-c5ccc(Cl)cc5)c(F)c4s3)o2)CC1` [Compound A-13], the IC50 came to 22 nM.

As for `N#CC1(NC(=O)Cc2nnc(Cc3nc4ccc(-c5cc6ccccc6s5)cc4s3)o2)CC1` [Compound I-3-93], the IC50 came to 28 nM.

With `N#CCNC(=O)Cc1nnc(Cc2ccc3cc(-c4ccccc4)ccc3n2)o1` [Compound I-2-204], the IC50 is 190 nM.

`N#CC1(NC(=O)Cc2nnc(Cc3nc4cnc(-c5ccccc5)cc4s3)o2)CC1` [Compound A-10]: the IC50 was 8 nM.

`O=C(Cc1nnc(Cc2nc3ccc(-c4ccccc4)cc3s2)o1)NC1COC1` [Compound I-3-30]: the IC50 amounted to 46 nM.

In the case of `N#CC1(NC(=O)Cc2nnc(Cc3nc4ccc(-c5ccc(F)s5)cc4s3)o2)CC1` [Compound I-3-163], the IC50 is 9 nM.

Regarding `COc1cc(-c2cnn(C)c2)cc2sc(Cc3nnc(CC(=O)NC4(C#N)CC4)o3)nc12` [Compound A-25], the IC50 came out at 42 nM.

`N#CC1(NC(=O)Cc2nnc(Cc3nc4ccc(-c5ccccn5)cc4s3)o2)CC1` [Compound I-3-1]: the IC50 came to 11 nM.

In the case of `N#CCNC(=O)Cc1nnc(Cc2nc3cc(-c4ccccc4)ccc3o2)o1` [Compound I-1-43], the IC50 worked out at 390 nM.

Turning to `Cn1cc(-c2ccc3sc(Cc4nnc(CC(=O)NC5(C#N)CC5)o4)nc3c2)cn1` [Compound I-3-4], the IC50 is 4 nM.

As to `N#CCNC(=O)Cc1nnc(Cc2nc3c(-c4ccccc4)cccc3s2)o1` [Compound I-2-197], the IC50 was 12 nM.

Turning to `NS(=O)(=O)NCc1nnc(Cc2nc3ccc(-c4ccccc4)cc3s2)o1` [Compound I-1-85], the IC50 is 6 nM.

As to `O=C(Cc1nnc(Cc2nc3c(-c4ccccc4)cccc3s2)o1)NC1(CO)CC1` [Compound I-3-12], the IC50 worked out at 78 nM.

Take `N#CCNC(=O)Cc1nnc(Cc2cnc3cc(-c4ccccc4)ccc3n2)o1` [Compound I-2-215]: the IC50 amounted to 2500 nM.

Turning to `N#CC1(NC(=O)Cc2nnc(Cc3nc4c(-c5ccccc5)cccc4s3)o2)CC1` [Compound I-3-11], the IC50 was found to be 9 nM.

`Cc1ccc(-c2ccc3nc(Cc4nnc(CC(=O)NC5(C#N)CC5)o4)sc3c2F)s1` [Compound A-9]: the IC50 is 11 nM.

Turning to `N#CCNC(=O)Cc1nnc(C(F)(F)c2nc3ccc(-c4ccccc4)cc3s2)o1` [Compound I-3-21], the IC50 turned out to be 250 nM.

For the molecule `N#CCNC(=O)Cc1nnc(Cc2nc3c(Br)cccc3s2)o1` [Compound I-2-196], the IC50 is 36 nM.

For `O=C(Cc1nnc(Cc2nc3ccc(-c4ccccc4)cc3s2)o1)N1CCOCC1` [Compound I-1-82], the IC50 is 52 nM.

Turning to `N#CC1(NC(=O)Cc2nnc(Cc3nc4ccc(-c5ccc(Cl)s5)cc4s3)o2)CC1` [Compound I-3-56], the IC50 was 4 nM.

As to `Cn1cc(-c2ccc3nc(Cc4nnc(CC(=O)NC5(C#N)CC5)o4)sc3n2)cn1` [Compound A-19], the IC50 was found to be 110 nM.

As to `N#CCNC(=O)Cc1nnc(Cc2nc3ccc(-c4ccccc4)cc3s2)o1` [Compound I-1-3], the IC50 is 26 nM.

With `O=C(Cc1nnc(Cc2nc3ccc(-c4ccccc4)cc3s2)o1)NCCO` [Compound I-1-31], the IC50 was found to be 83 nM.

As to `N#CCCc1nnc(Cc2nc3ccc(-c4ccccc4)cc3s2)o1` [Compound I-1-27], the IC50 worked out at 85 nM.

As to `Cn1ccc(-c2ccc3nc(Cc4nnc(CC(=O)NC5(C#N)CC5)o4)sc3c2)n1` [Compound I-2-198], the IC50 is 15 nM.

Consider `N#CC1(NC(=O)Cc2nnc(Cc3nc4ccc(-c5ncccn5)cc4s3)o2)CC1` [Compound I-3-145], for which the IC50 was 69 nM.

Take `Cc1ccc(-c2ccc3nc(Cc4nnc(CC(=O)NC5(C#N)CC5)o4)sc3n2)s1` [Compound A-14]: the IC50 was found to be 160 nM.

As to `N#CC1(NC(=O)Cc2nnc(Cc3nc4ccc(C5=CCOCC5)cc4s3)o2)CC1` [Compound I-3-48], the IC50 stood at 8 nM.

Take `CS(=O)(=O)NCc1nnc(Cc2nc3ccc(-c4ccccc4)cc3s2)o1` [Compound I-1-23]: the IC50 was 73 nM.

For `CC(C#N)NC(=O)Cc1nnc(Cc2nc3ccc(-c4ccccc4)cc3s2)o1` (stereo not drawn) [Compound I-3-37], the IC50 was found to be 2 nM.

As to `O=C(Cc1nnc(Cc2nc3ccc(-c4ccccc4)cc3s2)o1)N1CC(O)C1` [Compound I-3-23], the IC50 came out at 400 nM.

On to `O=C(Cc1nnc(Cc2nc3ccc(-c4ccc(F)cc4)cc3s2)o1)NC1(CO)CC1` [Compound I-3-6], for which the IC50 stood at 52 nM.

With `O=C(NCCc1nnc(Cc2nc3ccc(-c4ccccc4)cc3s2)o1)C1CC1` [Compound I-1-7], the IC50 is 19 nM.

In the case of `N#CCNC(=O)Cc1nnc(Cc2ccc(-c3ccccc3)cn2)o1` [Compound I-2-216], the IC50 turned out to be 23000 nM.
